{"source": "patent US7364759B2", "about": "“Skin whitening compositions containing black cohosh extract” (Access Business Group International LLC, priority 2003, dated 2008)", "test_system": "mouse derived immortalized melanocyte cells (M3)", "assay": "Suppression of melanogenesis in vitro (modified Dooley assay)", "assay_type": "cell-based", "details": "treatment dose 0.100%; treated days 1, 3, 5; melanin extracted day 6, OD 405 nm", "data": [{"smiles": "O=C1O[C@H]([C@@H](O)CO)C(O)=C1O", "note": "[Ascorbic Acid]", "values": [{"measurement": "% Control Melanin", "result": 51, "unit": "%"}]}]}
